# According to patent US8933195B2, “Histone deacetylase inhibitors and synthetic method thereof and use thereof in manufacture of medicaments” (Nanjing Yoko Biomedical R & D Ltd., priority 2011, dated 2015):
# Tests used:
# [1] = tested on: MOLT-4 (human acute lymphoblastic leukemia cells); test: MTT cancer cell growth inhibition; type: cell-based; details: 72 h
# Procedure, shortened: (§1)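 Absorbance at 570 nm of DMSO-dissolved formazan, after 4 h MTT labelling, gave cell survival rate. Before labelling, cells (1500/well, overnight attachment) were treated in triplicate for 72 h at 37 °C with compound at final 10^−5–10^−10 M; vehicle control 0.1% DMSO.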
# [2] = tested on: DU145 (human prostate cancer cells); test: MTT cancer cell growth inhibition; type: cell-based; details: DU-145, 72 h
# Procedure, shortened: as §1
# [3] = tested on: Human Melanoma Cell A875; test: Subcutaneously transplanted tumors in nude mice; type: in vivo; details: 20 mg/kg
# Method: (§2) Tumor tissues in the vigorous growth period are cut into about 1.5 mm^3, and inoculated to the right axilla subcutaneous layer of the nude mice under aseptic conditions. For the subcutaneously transplanted tumors of the nude mice, the diameter of the transplanted tumors is measured by a vernier caliper. The mice are randomly grouped after the tumors grow to 100-200 mm^3. […] The diameter of the transplanted tumors is measured twice per week in the whole experimental process, and meanwhile the weight of the mice is weighed. The calculation formula of tumor volume (TV) is TV=½×a×b^2, where a and b represent length and width, respectively.
# (§3) The relative tumor volume (RTV) is calculated according to the measured results, with the following calculation formula: RTV=Vt/V0, where V0 is the tumor volume obtained by measurement during administration in different cages (i.e., d0), Vt is the tumor volume obtained by measurement at each time. […] (Wc−WT)Wc×100%, where Wc is the tumor weight of the control group, and WT is the tumor weight of the treatment group.
# [4] = tested on: Human Gastric Adenocarcinoma Cell BGC-823; test: Subcutaneously transplanted tumors in nude mice; type: in vivo; details: 20 mg/kg
# Method: as §2, §3
# [5] = tested on: Human Lymphoma Cell Ramos; test: Subcutaneously transplanted tumors in nude mice; type: in vivo; details: 20 mg/kg
# Method: as §2, §3
# [6] = tested on: Human Lung Caner Cell NCI-H1975; test: Subcutaneously transplanted tumors in nude mice; type: in vivo; details: 20 mg/kg
# Method: as §2, §3
# [7] = tested on: Human Blood Acute Monocytic Leukemia U937; test: Subcutaneously transplanted tumors in nude mice; type: in vivo; details: 20 mg/kg
# Method: as §2, §3
# [8] = biological target: HDAC1 (Homo sapiens, UniProt Q13547); test: Measurement of biochemical activities of HDAC (fluorescently-labeled acetylated lysine substrate); details: read-out: IC50 HDAC1
# Sequence of HDAC1 (Q13547 whole entry, species assumed, canonical isoform): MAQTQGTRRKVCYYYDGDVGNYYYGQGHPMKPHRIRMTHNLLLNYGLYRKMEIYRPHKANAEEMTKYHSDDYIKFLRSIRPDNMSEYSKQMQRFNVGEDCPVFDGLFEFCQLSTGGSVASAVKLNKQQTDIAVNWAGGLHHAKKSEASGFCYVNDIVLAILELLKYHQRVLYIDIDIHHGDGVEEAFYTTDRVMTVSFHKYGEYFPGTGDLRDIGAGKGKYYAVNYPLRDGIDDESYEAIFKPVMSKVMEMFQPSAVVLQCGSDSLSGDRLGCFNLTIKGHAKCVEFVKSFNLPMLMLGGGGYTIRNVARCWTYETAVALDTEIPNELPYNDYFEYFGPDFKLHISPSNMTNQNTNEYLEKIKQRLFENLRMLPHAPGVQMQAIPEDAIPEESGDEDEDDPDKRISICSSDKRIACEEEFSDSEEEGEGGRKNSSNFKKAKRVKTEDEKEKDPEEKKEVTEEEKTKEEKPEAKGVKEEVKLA
# Procedure, shortened: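 For both HDAC isoforms, fluorescent acetyl-lysine substrate ([…] in reaction) incubated with enzyme and compounds for 30 min at 37; developer then added for 15 min at room temperature. Fluorescence read at excitation 360 nm, emission 460 nm.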
# [9] = tested on: Incap; test: MTT cancer cell growth inhibition; type: cell-based; details: 72 h
# [10] = tested on: human colon cancer HCT-116; test: Subcutaneously transplanted tumors in nude mice; type: in vivo, BALB/cA nude mice; design: key to RTV (mean ± SD): RTV = Vt/V0, tumor volume at time t over volume at d0; details: for 1-T/C tumor inhibition rate: after three weeks; for RTV (mean ± SD) / TV (mean ± SD) d21: d21
# Method: The solvents are isopropanol and anhydrous ethanol (mixed in the volume ratio of 1:1). The test sample is dissolved with solvents and physiological saline in the ratio of 1:1 for use, and the above solvents and physiological saline are dissolved in the ratio of 1:1 as a negative control.
# The number of mice in each group: 12 mice in the negative control group, and 6 mice in the administration group.
# The cell strains are inoculated to the right axilla subcutaneous layer of the nude mice, with 5×10^6 per mouse. After formed, the transplanted tumors are passed down two generations in the nude mice and then used.
# as §2, §3
# [11] = Table 1.1, 10 mg/kg q3d × 3w iv
# [12] = Table 1.1, 20 mg/kg q3d × 3w iv
# [13] = Table 2.1, 20 mg/kg q3d × 3w iv
compound,measurement,setting,value
C/C=C1\NC(=O)c2csc(n2)CNC(=O)C[C@@H](/C=C/CCSC(=O)CCCCCCC)OC(=O)[C@H](C(C)C)NC1=O [Compound 1-3],GI50,[1],1000 nM
same,GI50,[2],300 nM
same,Tumor Inhibition Rate (1 − T/C) × 100%,[3],63.89%
same,Tumor Inhibition Rate (1 − T/C) × 100%,[4],59.38%
same,Tumor Inhibition Rate (1 − T/C) × 100%,[5],70.08%
same,Tumor Inhibition Rate (1 − T/C) × 100%,[6],56.40%
same,Tumor Inhibition Rate (1 − T/C) × 100%,[7],65.21%
same,IC50,[8],< 10000 nM
same,GI50,[9],2000 nM
same,1-T/C tumor inhibition rate,"[10]; Table 1.1, 5 mg/kg q3d × 3w iv",7.92%
same,TV (mean ± SD) d0,"[10]; Table 1.1, 5 mg/kg q3d × 3w iv",122 ± 25 mm^3
same,Weight d0,"[10]; Table 1.1, 5 mg/kg q3d × 3w iv",16.7 g
same,RTV (mean ± SD),"[10]; Table 1.1, 5 mg/kg q3d × 3w iv",9.56 ± 2.44
same,TV (mean ± SD) d21,"[10]; Table 1.1, 5 mg/kg q3d × 3w iv",1166 ± 201 mm^3
same,1-T/C tumor inhibition rate,[10]; [11],39.71%
same,TV (mean ± SD) d0,[10]; [11],120 ± 19 mm^3
same,Weight d0,[10]; [11],17.5 g
same,RTV (mean ± SD),[10]; [11],6.26 ± 3.33
same,TV (mean ± SD) d21,[10]; [11],751 ± 244 mm^3
same,1-T/C tumor inhibition rate,[10]; [12],70.26%
same,TV (mean ± SD) d0,[10]; [12],116 ± 26 mm^3
same,Weight d0,[10]; [12],16.7 g
same,RTV (mean ± SD),[10]; [12],3.09 ± 3.14
same,TV (mean ± SD) d21,[10]; [12],358 ± 201 mm^3
same,Tumor Volume TV (mean ± SD) d 0,"[10]; Table 1.2, 5 mg/kg",122 ± 25 mm^3
same,Tumor Volume TV (mean ± SD) d 3,"[10]; Table 1.2, 5 mg/kg",179 ± 15 mm^3
same,Tumor Volume TV (mean ± SD) d 7,"[10]; Table 1.2, 5 mg/kg",343 ± 58 mm^3
same,Tumor Volume TV (mean ± SD) d 10,"[10]; Table 1.2, 5 mg/kg",454 ± 41 mm^3
same,Tumor Volume TV (mean ± SD) d 14,"[10]; Table 1.2, 5 mg/kg",605 ± 60 mm^3
same,Tumor Volume TV (mean ± SD) d 17,"[10]; Table 1.2, 5 mg/kg",895 ± 138 mm^3
same,Tumor Volume TV (mean ± SD) d 0,"[10]; Table 1.2, 10 mg/kg",120 ± 19 mm^3
same,Tumor Volume TV (mean ± SD) d 3,"[10]; Table 1.2, 10 mg/kg",163 ± 38 mm^3
same,Tumor Volume TV (mean ± SD) d 7,"[10]; Table 1.2, 10 mg/kg",217 ± 67 mm^3
same,Tumor Volume TV (mean ± SD) d 10,"[10]; Table 1.2, 10 mg/kg",302 ± 105 mm^3
same,Tumor Volume TV (mean ± SD) d 14,"[10]; Table 1.2, 10 mg/kg",408 ± 70 mm^3
same,Tumor Volume TV (mean ± SD) d 17,"[10]; Table 1.2, 10 mg/kg",571 ± 175 mm^3
same,Tumor Volume TV (mean ± SD) d 0,"[10]; Table 1.2, 20 mg/kg",116 ± 26 mm^3
same,Tumor Volume TV (mean ± SD) d 3,"[10]; Table 1.2, 20 mg/kg",129 ± 10 mm^3
same,Tumor Volume TV (mean ± SD) d 7,"[10]; Table 1.2, 20 mg/kg",155 ± 28 mm^3
same,Tumor Volume TV (mean ± SD) d 10,"[10]; Table 1.2, 20 mg/kg",193 ± 68 mm^3
same,Tumor Volume TV (mean ± SD) d 14,"[10]; Table 1.2, 20 mg/kg",245 ± 117 mm^3
same,Tumor Volume TV (mean ± SD) d 17,"[10]; Table 1.2, 20 mg/kg",275 ± 112 mm^3
same,Weight (mean ± SD) d 0,"[10]; Table 1.3, 5 mg/kg",16.7 ± 0.6 g
same,Weight (mean ± SD) d 3,"[10]; Table 1.3, 5 mg/kg",15.9 ± 0.7 g
same,Weight (mean ± SD) d 7,"[10]; Table 1.3, 5 mg/kg",15.0 ± 0.9 g
same,Weight (mean ± SD) d 10,"[10]; Table 1.3, 5 mg/kg",14.5 ± 1.2 g
same,Weight (mean ± SD) d 14,"[10]; Table 1.3, 5 mg/kg",14.1 ± 1.0 g
same,Weight (mean ± SD) d 17,"[10]; Table 1.3, 5 mg/kg",13.5 ± 0.9 g
same,Weight (mean ± SD) d 21,"[10]; Table 1.3, 5 mg/kg",13.3 ± 1.0 g
same,Weight (mean ± SD) d 0,"[10]; Table 1.3, 10 mg/kg",17.5 ± 1.6 g
same,Weight (mean ± SD) d 3,"[10]; Table 1.3, 10 mg/kg",16.6 ± 1.9 g
same,Weight (mean ± SD) d 7,"[10]; Table 1.3, 10 mg/kg",15.8 ± 2.0 g
same,Weight (mean ± SD) d 10,"[10]; Table 1.3, 10 mg/kg",15.7 ± 2.0 g
same,Weight (mean ± SD) d 14,"[10]; Table 1.3, 10 mg/kg",14.8 ± 1.8 g
same,Weight (mean ± SD) d 17,"[10]; Table 1.3, 10 mg/kg",14.2 ± 1.7 g
same,Weight (mean ± SD) d 21,"[10]; Table 1.3, 10 mg/kg",13.5 ± 1.6 g
same,Weight (mean ± SD) d 0,"[10]; Table 1.3, 20 mg/kg",16.7 ± 0.5 g
same,Weight (mean ± SD) d 3,"[10]; Table 1.3, 20 mg/kg",16.1 ± 0.4 g
same,Weight (mean ± SD) d 7,"[10]; Table 1.3, 20 mg/kg",14.6 ± 0.4 g
same,Weight (mean ± SD) d 10,"[10]; Table 1.3, 20 mg/kg",14.7 ± 0.4 g
same,Weight (mean ± SD) d 14,"[10]; Table 1.3, 20 mg/kg",13.7 ± 0.3 g
same,Weight (mean ± SD) d 17,"[10]; Table 1.3, 20 mg/kg",13.0 ± 0.3 g
same,Weight (mean ± SD) d 21,"[10]; Table 1.3, 20 mg/kg",13.1 ± 0.6 g
C/C=C1\NC(=O)c2csc(n2)CNC(=O)C[C@@H](/C=C/CCSC(=O)CCCCCCC)OC(=O)[C@H](Cc2ccc(O)cc2)NC1=O [Compound 1-8],GI50,[1],20 nM
same,GI50,[2],30 nM
same,Tumor Inhibition Rate (1 − T/C) × 100%,[3],68.07%
same,Tumor Inhibition Rate (1 − T/C) × 100%,[4],56.83%
same,Tumor Inhibition Rate (1 − T/C) × 100%,[5],58.33%
same,Tumor Inhibition Rate (1 − T/C) × 100%,[6],53.23%
same,Tumor Inhibition Rate (1 − T/C) × 100%,[7],68.32%
same,IC50,[8],< 102 nM
same,GI50,[9],200 nM
same,1-T/C tumor inhibition rate,[10]; [13],69.49%
same,TV (mean ± SD) d0,[10]; [13],116 ± 22 mm^3
same,Weight d0,[10]; [13],16.1 g
same,RTV (mean ± SD),[10]; [13],3.17 ± 2.08
same,TV (mean ± SD) d21,[10]; [13],368 ± 241 mm^3
same,Tumor Volume TV (mean ± SD) d 0,"[10]; Table 2.2, 20 mg/kg",118 ± 22 mm^3
same,Tumor Volume TV (mean ± SD) d 3,"[10]; Table 2.2, 20 mg/kg",139 ± 15 mm^3
same,Tumor Volume TV (mean ± SD) d 7,"[10]; Table 2.2, 20 mg/kg",165 ± 28 mm^3
same,Tumor Volume TV (mean ± SD) d 10,"[10]; Table 2.2, 20 mg/kg",203 ± 69 mm^3
same,Tumor Volume TV (mean ± SD) d 14,"[10]; Table 2.2, 20 mg/kg",265 ± 127 mm^3
same,Tumor Volume TV (mean ± SD) d 17,"[10]; Table 2.2, 20 mg/kg",305 ± 142 mm^3
same,Weight (mean ± SD) d 0,"[10]; Table 2.3, 20 mg/kg",16.3 ± 1.0 g
same,Weight (mean ± SD) d 3,"[10]; Table 2.3, 20 mg/kg",15.8 ± 1.1 g
same,Weight (mean ± SD) d 7,"[10]; Table 2.3, 20 mg/kg",15.1 ± 0.9 g
same,Weight (mean ± SD) d 10,"[10]; Table 2.3, 20 mg/kg",14.5 ± 1.2 g
same,Weight (mean ± SD) d 14,"[10]; Table 2.3, 20 mg/kg",14.0 ± 1.0 g
same,Weight (mean ± SD) d 17,"[10]; Table 2.3, 20 mg/kg",13.5 ± 0.9 g
same,Weight (mean ± SD) d 21,"[10]; Table 2.3, 20 mg/kg",12.9 ± 0.9 g
